Reference: patent US20100292289A1 (priority 2007, published 2010)
Read-outs that look alike come from different tables or passages of the source.

Columns and labels:
Assay type in all cases: cell-based
CB1 receptor [1] = target: T1, CB1 receptor (Homo sapiens, UniProt P21554); assay: FLIPR calcium flux assay, antagonist format, CB1; details: reference agonist CP-55,940 at EC80 as 0% inhibition; for % Inhibition Antagonist CB1: 1 μM
Experimental: (§1) A FLIPR assay was conducted to monitor agonist and antagonist selectivity for compounds of the invention against the CBI and GLP-1 receptors. Percentage activation and percentage inhibition values were determined for each compound on each of the GPCRs listed above. Agonist selectivity was determined upon initial addition of compounds followed by 10 minute incubation at 25° C. Following compound incubation, reference agonists were added at EC80 to determine percentage inhibition.
(§2) Agonist percentage activation determinations were obtained by assaying sample compounds and referencing the Emax control for each of the GPCRs profiled. Antagonist percentage inhibition determinations were obtained by assaying sample compounds and referencing the control EC80 wells for each of the GPCRs profiled. The protocol design is as follows:
(§3) Unless specified otherwise, all sample compounds were diluted in 100% anhydrous DMSO including all serial dilutions. Occasionally sample compounds were provided in a different solvent, in this case all master stock dilutions were performed in the specified diluent. All control wells contained identical solvent final concentrations as sample compound wells.
(§4) Sample compounds were transferred from a master stock solution into a daughter plate that was used in the assay. Each sample compound was diluted into assay buffer (1×HBSS with 20 mM HEPES) at an appropriate concentration to obtain final concentrations.
(§5) Using the EC50 values determined previously, stimulated all pre-incubated sample compound and reference antagonist (if applicable) wells with EC80 of reference agonist. Read for 90 seconds using the FLIPRTETRA. (This assay added reference agonist to respective wells—then fluorescence measurements were collected to calculate percentage inhibition.)
(§6) All plates were subjected to appropriate baseline corrections. Once baseline corrections were processed, maximum fluorescence values were exported and data manipulated to calculate percentage activation, percentage inhibition, Z′, EC50, and IC50. Percentage activation data was calculated using Emax as 100% control. Percentage inhibition was calculated using EC80 as 0% inhibition.

CB1 receptor [2] = target: T1, CB1 receptor; assay: FLIPR calcium flux assay, agonist format, CB1; details: Emax of reference agonist CP-55,940 as 100%; for % Activation Agonist CB1: 1 μM
Experimental: as §1, §2, §3, §4
(§7) All sample compounds were plated at 1 μM in duplicate for assaying against all GPCRs. Reference agonists were handled as mentioned above serving as assay control. These reference agonists were handled as described above for both EMax and EC80 control wells. Assay was read for 90 seconds using the FLIPRTETRA. (This assay run added sample compounds and reference agonist to respective rows.) At the completion of the first “Single Addition” assay run, assay plate was removed from the FLIPRTetra and placed at 25° C. for 10 minutes.
as §6

GLP-1 receptor [3] = target: T2, GLP-1 receptor (Homo sapiens, UniProt P43220); assay: FLIPR calcium flux assay, agonist format, GLP-1; details: Emax of reference ligand Glucagon as 100%; for % Activation Agonist GLP-1: 1 μM
T2 sequence (P43220 24-463): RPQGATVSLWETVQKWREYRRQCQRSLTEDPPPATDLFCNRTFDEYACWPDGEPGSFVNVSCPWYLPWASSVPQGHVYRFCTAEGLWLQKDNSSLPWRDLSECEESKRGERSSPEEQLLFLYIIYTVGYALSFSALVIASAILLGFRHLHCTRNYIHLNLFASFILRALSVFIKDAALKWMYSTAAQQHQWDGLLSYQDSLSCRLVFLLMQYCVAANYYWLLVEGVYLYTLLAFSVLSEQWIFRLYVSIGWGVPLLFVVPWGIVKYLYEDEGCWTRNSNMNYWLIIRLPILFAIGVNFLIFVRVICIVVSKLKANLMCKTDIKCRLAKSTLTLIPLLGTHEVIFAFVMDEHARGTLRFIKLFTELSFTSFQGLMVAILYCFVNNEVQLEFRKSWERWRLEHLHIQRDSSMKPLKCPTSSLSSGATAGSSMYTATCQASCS
Experimental: as §1, §2, §3, §4, §7, §6

GLP-1 receptor [4] = target: T2, GLP-1 receptor; assay: FLIPR calcium flux assay, antagonist format, GLP-1; details: for inhibition at 1 µM: read-out: % Inhibition Antagonist GLP-1
Experimental: as §1, §2, §3, §4, §5, §6

[5] = 1 μM, reference ligand Glucagon at EC80 as 0% inhibition

T1 sequence (P21554 whole entry): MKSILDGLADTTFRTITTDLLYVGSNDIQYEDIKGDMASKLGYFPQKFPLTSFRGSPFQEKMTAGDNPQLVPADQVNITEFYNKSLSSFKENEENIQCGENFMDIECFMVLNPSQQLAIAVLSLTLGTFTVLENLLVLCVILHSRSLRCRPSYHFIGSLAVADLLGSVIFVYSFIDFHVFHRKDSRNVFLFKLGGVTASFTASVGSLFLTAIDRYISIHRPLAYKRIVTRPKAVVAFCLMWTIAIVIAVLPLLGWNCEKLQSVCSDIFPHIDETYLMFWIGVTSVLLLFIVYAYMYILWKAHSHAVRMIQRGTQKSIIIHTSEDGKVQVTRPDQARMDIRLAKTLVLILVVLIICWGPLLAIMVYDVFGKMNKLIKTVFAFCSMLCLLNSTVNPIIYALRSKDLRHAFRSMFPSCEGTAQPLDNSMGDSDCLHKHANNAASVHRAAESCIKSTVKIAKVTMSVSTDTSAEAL

Row | Compound | inhibition at 1 µM (CB1 receptor [1]) | activation at 1 µM (CB1 receptor [2]) | activation at 1 µM (GLP-1 receptor [3]) | inhibition at 1 µM (GLP-1 receptor [4]; [5]) | % Activation Agonist CB1 (CB1 receptor [2]) | % Activation Agonist GLP-1 (GLP-1 receptor [3]) | % Inhibition Antagonist CB1 (CB1 receptor [1]) | % Inhibition Antagonist GLP-1 (GLP-1 receptor [4]; [5]) | inhibition at 1 µM (GLP-1 receptor [4])
1 | O=C(c1ccccc1)c1ccc2n1CCC2C(=O)NCC[C@@H](Oc1ccc(C(F)(F)F)cc1)c1ccccc1 (stereo partly drawn) [Compound 5a] | 48.7% | 0.3% | 0.4% | -6.3% |  |  |  |  | 
2 | COc1ccc2c(c1)c(CC(=O)NCC[C@@H](Oc1ccc(C(F)(F)F)cc1)c1ccccc1)c(C)n2C(=O)c1ccc(Cl)cc1 [Compound 7a] | 46.9% | -0.5% | 4.2% | 0% |  |  |  |  | 
3 | CN(CCC(Oc1ccc(C(F)(F)F)cc1)c1ccccc1)C(=O)C1CCn2c(C(=O)c3ccccc3)ccc21 (stereo not drawn) [Compound 13] | 37.7% | 0.9% | 0.8% | -15.4% |  |  |  |  | 
4 | C[C@H](C(=O)N(C)CCC(Oc1ccc(C(F)(F)F)cc1)c1ccccc1)c1cccc(C(=O)c2ccccc2)c1 (stereo partly drawn) [Compound 14] | 56.6% | 1.2% | -2.4% | 17.2% |  |  |  |  | 
5 | COc1ccc2c(c1)c(CC(=O)N(C)CCC(Oc1ccc(C(F)(F)F)cc1)c1ccccc1)c(C)n2C(=O)c1ccc(Cl)cc1 (stereo not drawn) [Compound 15] | 34.4% | 0% | -0.2% | -5.1% |  |  |  |  | 
6 | CN(Cc1ccccc1)C1CCN(C(C(=O)NCC[C@@H](Oc2ccc(C(F)(F)F)cc2)c2ccccc2)c2nc(-c3ccc(C(F)(F)F)cc3)no2)CC1 (stereo partly drawn) [Compound 16] |  | 6.9% | 21.3% |  |  |  |  |  | 
7 | C[C@H]1CCN(C(C(=O)NCC[C@@H](Oc2ccc(C(F)(F)F)cc2)c2ccccc2)c2nc(-c3ccc(C(F)(F)F)cc3)no2)C[C@@H]1COc1ccc(C(F)(F)F)cc1 (stereo partly drawn) [Compound 17] |  |  |  |  | 8.6% | 9.4% |  |  | 
8 | C[C@@H]1CCN(C(C(=O)NCC[C@@H](Oc2ccc(C(F)(F)F)cc2)c2ccccc2)c2nc(-c3ccc(C(F)(F)F)cc3)no2)C[C@@H]1COc1ccc(C(F)(F)F)cc1 (stereo partly drawn) [Compound 18] |  |  |  |  | 6.2% | 20.6% |  |  | 
9 | O=C(NCC[C@@H](Oc1ccc(C(F)(F)F)cc1)c1ccccc1)C(c1nc(-c2ccc(C(F)(F)F)cc2)no1)N1CCC[C@@H](COc2ccc(C(F)(F)F)cc2)C1 (stereo partly drawn) [Compound 19] |  |  |  |  | 0.5% | 6.5% |  |  | 
10 | C[C@H]1CCN(C(C(=O)NCCOc2ccc(C(F)(F)F)cc2)c2nc(-c3ccc(C(F)(F)F)cc3)no2)C[C@@H]1COc1ccc(C(F)(F)F)cc1 (stereo partly drawn) [Compound 20] |  |  |  |  | 1.9% | 7.5% | 14.5% | −14.4% | 
11 | O=C(Cc1nc(-c2ccc(C(F)(F)F)cc2)no1)NCC[C@@H](Oc1ccc(C(F)(F)F)cc1)c1ccccc1 [Compound 23] |  |  |  |  | 7.8% | 11.9% |  |  | 
12 | CN(Cc1ccccc1)C1CCN(C(C(=O)NCCOc2ccc(C(F)(F)F)cc2)c2nc(-c3ccc(C(F)(F)F)cc3)no2)CC1 (stereo not drawn) [Compound 24] |  |  |  |  | 1.6% | 5.9% | 4.6% | −1.6% | 
13 | CC(C(=O)N(C)CC[C@@H](Oc1ccc(C(F)(F)F)cc1)c1ccccc1)c1ccc(CN(C)C)cc1 (stereo partly drawn) [Compound 25a] | 79.9% | 0.8% | -2.7% | 5.7% |  |  |  |  | 
14 | CC(C(=O)N(C)CC[C@H](Oc1ccc(C(F)(F)F)cc1)c1ccccc1)c1ccc(CN(C)C)cc1 (stereo partly drawn) [Compound 25b] | 15.2% | 0.2% | -3.3% | 6.9% |  |  |  |  | 
15 | CC(C(=O)N(C)CC[C@H](Oc1ccc(C(F)(F)F)cc1)c1ccccc1)c1ccc(CC2CCCC2=O)cc1 (stereo partly drawn) [Compound 29b] |  |  |  |  | −0.2% | 6.2% | 31.2% | 0.0% | 
16 | CC(C)Cc1ccc(C2(C(=O)N(C)CC[C@@H](Oc3ccc(C(F)(F)F)cc3)c3ccccc3)CCC2)cc1 [Compound 30a] |  |  |  |  | 1.0% | −3.7% | 84.6% | 7.5% | 
17 | CC(C)Cc1ccc(C2(C(=O)N(C)CC[C@H](Oc3ccc(C(F)(F)F)cc3)c3ccccc3)CCC2)cc1 [Compound 30b] |  |  |  |  | −0.8% | −3.4% | 48.3% | 9.7% | 
18 | CC(C)Cc1ccc(CC(=O)N(C)CC[C@@H](Oc2ccc(C(F)(F)F)cc2)c2ccccc2)cc1 [Compound 32a] | 90.7% | 4.5% | 2.9% | 0.8% |  |  |  |  | 
19 | CC(C)Cc1ccc(CC(=O)N(C)CC[C@H](Oc2ccc(C(F)(F)F)cc2)c2ccccc2)cc1 [Compound 32b] |  |  |  |  | 2.1% | −1.8% | 23.0% | −0.8% | 
20 | CC(C(=O)N(C)CC[C@@H](Oc1ccc(C(F)(F)F)cc1)c1ccccc1)c1ccc(C(F)(F)F)cc1 (stereo partly drawn) [Compound 33a] |  |  |  |  | −0.3% | 0.9% | 90.7% | 11.4% | 
21 | CC(C(=O)N(C)CC[C@H](Oc1ccc(C(F)(F)F)cc1)c1ccccc1)c1ccc(C(F)(F)F)cc1 (stereo partly drawn) [Compound 33b] | 45.8% | 0.5% | 17.6% | ~0% |  |  |  |  | 
22 | C[C@@H](C(=O)N(C)CC[C@@H](Oc1ccc(C(F)(F)F)cc1)c1ccccc1)c1ccc(C(F)(F)F)cc1 [Compound 33c] | 80.1% | -0.9% | 0.8% | 0.2% |  |  |  |  | 
23 | C[C@H](C(=O)N(C)CC[C@@H](Oc1ccc(C(F)(F)F)cc1)c1ccccc1)c1ccc(C(F)(F)F)cc1 [Compound 33d] | 82.8% | 1.4% | 0.6% | 11.4% |  |  |  |  | 
24 | C[C@@H](C(=O)N(C)CC[C@H](Oc1ccc(C(F)(F)F)cc1)c1ccccc1)c1ccc(C(F)(F)F)cc1 [Compound 33e] | 0.8% | 1.7% | 0.4% | 9.4% |  |  |  |  | 
25 | C[C@H](C(=O)N(C)CC[C@H](Oc1ccc(C(F)(F)F)cc1)c1ccccc1)c1ccc(C(F)(F)F)cc1 [Compound 33f] | 34% | -0.5% | -3.5% | 11.5% |  |  |  |  | 
26 | CCc1ccc(C(C)C(=O)N(C)CC[C@@H](Oc2ccc(C(F)(F)F)cc2)c2ccccc2)cc1 (stereo partly drawn) [Compound 34a] | 99% | -2.9% | -0.8% | -1% |  |  |  |  | 
27 | CC(C)Cc1ccccc1C(C)C(=O)N(C)CC[C@@H](Oc1ccc(C(F)(F)F)cc1)c1ccccc1 (stereo partly drawn) [Compound 38a] | 98.5% |  |  |  |  |  |  |  | -20.2%
